The results in this text go back to ChEMBL document CHEMBL1155839, “Exploring 9-benzyl purines as inhibitors of glutamate racemase (MurI) in Gram-positive bacteria” (Bioorg Med Chem Lett, 2008).

≈ marks a conversion by molar mass, not a printed value.

The target in one data set is T1, Glutamate racemase (Enterococcus faecalis (strain ATCC 700802 / V583), UniProt Q836J0).
T1 sequence (Q836J0 whole entry): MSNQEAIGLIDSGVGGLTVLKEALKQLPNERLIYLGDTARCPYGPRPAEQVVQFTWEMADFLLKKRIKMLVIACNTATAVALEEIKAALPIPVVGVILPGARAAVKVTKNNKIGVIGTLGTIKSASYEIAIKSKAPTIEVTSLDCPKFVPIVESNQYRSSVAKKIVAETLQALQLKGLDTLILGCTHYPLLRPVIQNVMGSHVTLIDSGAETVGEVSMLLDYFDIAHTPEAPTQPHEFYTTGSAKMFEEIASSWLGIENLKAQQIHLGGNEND
The data set can be described thus: Inhibition of Enterococcus faecalis MurI.

Data set [1] in a line: Solubility by nephelometry. It is filed as physicochemical.
The nature of data set [2]: Inhibition of Staphylococcus aureus MurI.
A further data set concerns Staphylococcus aureus. The data set can be described thus: Antibacterial activity against Staphylococcus aureus. It is filed as functional.
Another data set deals with Enterococcus faecium. Nature of the data set: Antibacterial activity against Enterococcus faecium. The class given is functional.
Data set [3] in a line: Inhibition of Enterococcus faecium MurI.
The next data set has as its system Enterococcus faecalis. Nature of the data set: Antibacterial activity against Enterococcus faecalis. It is filed as functional.

What is called IC50 is the point on the concentration scale where inhibition reaches its midpoint. As usually defined, the kinetic solubility is solubility judged after dilution from a stock solution rather than from solid. Broadly, the MIC is the least concentration at which growth counts as inhibited. Higher therefore signals a need for much substance. As to `CCCCSc1ncc2ncn(Cc3c(F)ccc(Cl)c3F)c2n1`, the IC50 against Glutamate racemase was 1 µM; in data set [2], more than 400 µM; in data set [3], 1.8 µM. Besides, the kinetic solubility in data set [1] turned out to be 50 µM (≈ 18.4 µg/mL). Besides, the MIC against Staphylococcus aureus, against Enterococcus faecium and against Enterococcus faecalis was 16 µg/mL (≈ 43.4 µM) in each case.

Take `CCC(Oc1nc(N)c2ncn(Cc3c(F)ccc(C)c3F)c2n1)C(F)(F)C(F)(F)F` (stereo not drawn): the IC50 was 4.3 µM against Glutamate racemase, more than 400 µM in data set [2] and 4.4 µM in data set [3]. Further, the solubility (kinetic) in data set [1] was 25 µM (≈ 11.3 µg/mL). Besides, the MIC against Staphylococcus aureus, against Enterococcus faecium and against Enterococcus faecalis was 16 µg/mL (≈ 35.4 µM) in each case.

Turning to `CCCCOc1nc(NC)c2ncn(Cc3c(F)cccc3F)c2n1`, the results for the IC50 (at Glutamate racemase; in data set [2]; in data set [3]) were 5.5 µM, more than 400 µM and 13.9 µM, respectively. The molecule further showed a solubility (kinetic) in data set [1] of 100 µM (≈ 34.7 µg/mL). In addition, the MIC in the data set on Staphylococcus aureus, against Enterococcus faecium and in the data set with Enterococcus faecalis was 16 µg/mL (≈ 46.1 µM) each time.

As to `CCCCOc1nc(NCc2cccnc2)c2ncn(Cc3c(F)ccc(Cl)c3F)c2n1`, the IC50 against Glutamate racemase is 2 µM; in data set [2] it was more than 400 µM; in data set [3], 2.7 µM. Also, in data set [1], the kinetic solubility was 18 µM (≈ 8.26 µg/mL). Besides, the MIC with Staphylococcus aureus, with Enterococcus faecium and against Enterococcus faecalis was 16 µg/mL (≈ 34.9 µM) each time.

Regarding `CCCCNc1nc(N)c2ncn(Cc3c(F)cccc3F)c2n1`, the results for the IC50 (against Glutamate racemase; in data set [2]; in data set [3]) were 26.1 µM, more than 400 µM and 42.5 µM, respectively. This molecule showed a kinetic solubility in data set [1] of 100 µM (≈ 33.2 µg/mL). For the same molecule, the MIC with Staphylococcus aureus, against Enterococcus faecium and against Enterococcus faecalis was 16 µg/mL (≈ 48.1 µM) in each case.

As to `CC(=O)NC(C)Oc1nc(N)c2ncn(Cc3c(F)ccc(C)c3F)c2n1` (stereo not drawn), the IC50 at Glutamate racemase was 167 µM; in data set [2], more than 400 µM; in data set [3] it was more than 400 µM. In data set [1], this molecule displayed a kinetic solubility of 100 µM (≈ 37.6 µg/mL). In addition, the MIC in the data set on Staphylococcus aureus, in the data set on Enterococcus faecium and with Enterococcus faecalis was 16 µg/mL (≈ 42.5 µM) each time.

`CCCCSc1nc(N)c2ncn(Cc3cccc([N+](=O)[O-])c3)c2n1`: the IC50 is 9.4 µM at Glutamate racemase, more than 400 µM in data set [2] and 17.7 µM in data set [3]. For the same molecule, the solubility (kinetic) in data set [1] was found to be 42 µM (≈ 15.1 µg/mL). The MIC with Staphylococcus aureus, with Enterococcus faecium and in the data set with Enterococcus faecalis was 16 µg/mL (≈ 44.6 µM) throughout.

`CCCCSc1nc(N)c2ncn(Cc3c(F)cccc3F)c2n1`: the values for the IC50 (at Glutamate racemase; in data set [2]; in data set [3]) were 4.1 µM, more than 400 µM and 6 µM, respectively. The solubility (kinetic) in data set [1] came to 50 µM (≈ 17.5 µg/mL). In addition, the MIC with Staphylococcus aureus, against Enterococcus faecium and in the data set with Enterococcus faecalis was 16 µg/mL (≈ 45.8 µM) each time.

With `CCCCOc1nc(N)c2[nH]c(=O)n(Cc3c(F)cccc3F)c2n1`, the figures for the IC50 (on Glutamate racemase; in data set [2]; in data set [3]) were 38.1 µM, more than 400 µM and 97.8 µM, respectively. Besides, the solubility (kinetic) in data set [1] was found to be 200 µM (≈ 69.9 µg/mL). Besides, the MIC against Staphylococcus aureus, against Enterococcus faecium and with Enterococcus faecalis was 16 µg/mL (≈ 45.8 µM) each time.

On to `CCCCSc1nc(N)c2nnn(Cc3c(F)cccc3F)c2n1`, for which the IC50 against Glutamate racemase was 4.3 µM; in data set [2], more than 400 µM; in data set [3], 6.2 µM. In addition, the solubility (kinetic) in data set [1] stood at 50 µM (≈ 17.5 µg/mL). Moreover, the minimum inhibitory concentration (MIC) in the data set on Staphylococcus aureus, against Enterococcus faecium and against Enterococcus faecalis was 16 µg/mL (≈ 45.7 µM) in each case.

As for `CCCCSc1nc(N)c2ncn(Cc3c(F)ccc(C)c3F)c2n1`, the IC50 at Glutamate racemase was 5.4 µM; in data set [2], more than 400 µM; in data set [3], 6.5 µM. The molecule further showed a kinetic solubility in data set [1] of 25 µM (≈ 9.09 µg/mL). The MIC against Staphylococcus aureus, in the data set on Enterococcus faecium and against Enterococcus faecalis was 16 µg/mL (≈ 44 µM) each time.

For `CCCCOc1nc(NCCN2CCOCC2)c2ncn(Cc3c(F)cccc3F)c2n1`, the kinetic solubility in data set [1] came out at 200 µM (≈ 89.3 µg/mL). Moreover, the results for the IC50 in data set [2] and in data set [3] were more than 400 µM and 5.5 µM, respectively. Also, the MIC in the data set with Staphylococcus aureus, in the data set with Enterococcus faecium and in the data set on Enterococcus faecalis was 16 µg/mL (≈ 35.8 µM) throughout.

Take `CCCCSc1nc2c(ncn2Cc2c(F)ccc(C)c2F)c(=O)[nH]1`: the IC50 on Glutamate racemase is 11.5 µM; in data set [2], more than 400 µM; in data set [3], 3.75 µM. In data set [1], this molecule displayed a solubility (kinetic) of 100 µM (≈ 36.4 µg/mL). The MIC with Staphylococcus aureus, with Enterococcus faecium and in the data set with Enterococcus faecalis was 16 µg/mL (≈ 43.9 µM) each time.

In the case of `CCCCOc1nc(NCc2ccccc2)c2ncn(Cc3c(F)ccc(C)c3F)c2n1`, the IC50 (at Glutamate racemase; in data set [2]; in data set [3]) was more than 400 µM throughout. This molecule also yielded a kinetic solubility in data set [1] of 3.1 µM (≈ 1.36 µg/mL). The MIC against Staphylococcus aureus, in the data set on Enterococcus faecium and in the data set on Enterococcus faecalis was 16 µg/mL (≈ 36.6 µM) each time.

On to `CCCCOc1nc(N)c2ncn(Cc3c(F)ccc(C)c3F)c2n1`, for which the IC50 is 9.8 µM against Glutamate racemase, more than 400 µM in data set [2] and 27 µM in data set [3]. In addition, the solubility (kinetic) in data set [1] is 50 µM (≈ 17.4 µg/mL). In addition, the MIC in the data set with Staphylococcus aureus, against Enterococcus faecium and in the data set with Enterococcus faecalis was 16 µg/mL (≈ 46.1 µM) in each case.

As for `CCCCSc1nc(N)c2ncn(Cc3cc([N+](=O)[O-])ccc3OC)c2n1`, the IC50 is 1.4 µM on Glutamate racemase, more than 400 µM in data set [2] and 2.5 µM in data set [3]. Also, in data set [1], the solubility (kinetic) worked out at 25 µM (≈ 9.71 µg/mL). Also, the MIC in the data set on Staphylococcus aureus, in the data set on Enterococcus faecium and in the data set on Enterococcus faecalis was 16 µg/mL (≈ 41.2 µM) throughout.

Turning to `CCCCSc1nc(N)c2ncn(Cc3c(F)ccc(Cl)c3F)c2n1`, the IC50 is 2.2 µM against Glutamate racemase, more than 400 µM in data set [2] and 2.6 µM in data set [3]. In data set [1], this molecule gave a kinetic solubility of 25 µM (≈ 9.6 µg/mL). Further, the MIC in the data set with Staphylococcus aureus, in the data set with Enterococcus faecium and with Enterococcus faecalis was 16 µg/mL (≈ 41.7 µM) each time.
